Laboratory results reported in the NIST ThermoML archive (doi:10.1016/j.jct.2016.03.028).
± gives the expanded uncertainty stated by the source.

Assay: xn = mol fraction of the nth substance listed
Details: Liquid; for speed of sound: 100 kPa, Frequency=3 MHz, Sing-around technique in a fixed-path interferometer; for mass density: 101.3 kPa, Vibrating tube method

CCCOCCO [2-propoxyethanol] + CCOS(=O)(=O)[O-].CCn1cc[n+](C)c1
Details	mass density, 298.15 K [kg/m3]	mass density, 308.15 K [kg/m3]	mass density, 318.15 K [kg/m3]	speed of sound, 298.15 K [m/s]	speed of sound, 308.15 K [m/s]	speed of sound, 318.15 K [m/s]
x2 = 0	908.31 ± 2	899.5 ± 2	890.56 ± 2	1299.9 ± 1.5	1265 ± 1.5	1230.1 ± 1.5
x2 = 0.0496	936.15 ± 2	927.63 ± 2	919 ± 2	1322.2 ± 1.6	1288.6 ± 1.5	1254.9 ± 1.5
x2 = 0.0901	957.3 ± 2	948.98 ± 2	940.58 ± 2	1339.6 ± 1.6	1306.8 ± 1.6	1274 ± 1.5
x2 = 0.1345	979.08 ± 2	970.94 ± 2	962.75 ± 2	1358 ± 1.6	1326.1 ± 1.6	1294.2 ± 1.5
x2 = 0.1738	997.17 ± 2	989.17 ± 2	981.14 ± 2	1374 ± 1.6	1342.8 ± 1.6	1311.6 ± 1.6
x2 = 0.2568	1032.34 ± 2	1024.6 ± 2	1016.84 ± 2	1407.7 ± 1.6	1377.8 ± 1.6	1347.8 ± 1.6
x2 = 0.3477	1066.65 ± 2	1059.1 ± 2	1051.57 ± 2	1444.5 ± 1.6	1415.6 ± 1.6	1386.9 ± 1.6
x2 = 0.4406	1097.96 ± 2	1090.57 ± 2	1083.21 ± 2	1482.1 ± 1.6	1454.2 ± 1.6	1426.5 ± 1.6
x2 = 0.5477	1130.29 ± 2	1123.06 ± 2	1115.85 ± 2	1525.4 ± 1.6	1498.4 ± 1.6	1471.8 ± 1.6
x2 = 0.6478	1157.57 ± 2	1150.45 ± 2	1143.37 ± 2	1565.2 ± 1.6	1539 ± 1.6	1513.2 ± 1.6
x2 = 0.7729	1188.39 ± 2	1181.41 ± 2	1174.46 ± 2	1612.3 ± 1.6	1587 ± 1.6	1562 ± 1.6
x2 = 0.8263	1200.6 ± 2	1193.67 ± 2	1186.78 ± 2	1630.9 ± 1.6	1606 ± 1.6	1581.3 ± 1.6
x2 = 0.8757	1211.4 ± 2	1204.51 ± 2	1197.67 ± 2	1647 ± 1.6	1622.3 ± 1.6	1597.9 ± 1.6
x2 = 0.9346	1223.63 ± 2	1216.76 ± 2	1209.98 ± 2	1664.4 ± 1.6	1639.9 ± 1.6	1615.7 ± 1.6
